Experimental data published in article PMC8961646, “Fibroblast Activation Protein Specific Optical Imaging in Non-Small Cell Lung Cancer” (Frontiers in Oncology, 2022).
Non-standard residues stand in square brackets, D forms with d. Residues, ends and D or L forms follow the SMILES beside them. *: point of attachment. 5FAM = O=C1OC2(c3ccc(O)cc3Oc3cc(O)ccc32)c2ccc(C(=O)*)cc21; MethylRed = CN(C)c1ccc(/N=N/c2ccccc2C(=O)*)cc1; AEEA = NCCOCCOCC(=O)O

Key:
[1] = target: T1, rhPREP (Homo sapiens, UniProt P48147); assay: Probe cleavage by recombinant human PREP (fluorescence plate assay, MALDI confirmation); type: biochemical
T1 construct: purchased R&D Systems
T1 sequence (P48147 1-710): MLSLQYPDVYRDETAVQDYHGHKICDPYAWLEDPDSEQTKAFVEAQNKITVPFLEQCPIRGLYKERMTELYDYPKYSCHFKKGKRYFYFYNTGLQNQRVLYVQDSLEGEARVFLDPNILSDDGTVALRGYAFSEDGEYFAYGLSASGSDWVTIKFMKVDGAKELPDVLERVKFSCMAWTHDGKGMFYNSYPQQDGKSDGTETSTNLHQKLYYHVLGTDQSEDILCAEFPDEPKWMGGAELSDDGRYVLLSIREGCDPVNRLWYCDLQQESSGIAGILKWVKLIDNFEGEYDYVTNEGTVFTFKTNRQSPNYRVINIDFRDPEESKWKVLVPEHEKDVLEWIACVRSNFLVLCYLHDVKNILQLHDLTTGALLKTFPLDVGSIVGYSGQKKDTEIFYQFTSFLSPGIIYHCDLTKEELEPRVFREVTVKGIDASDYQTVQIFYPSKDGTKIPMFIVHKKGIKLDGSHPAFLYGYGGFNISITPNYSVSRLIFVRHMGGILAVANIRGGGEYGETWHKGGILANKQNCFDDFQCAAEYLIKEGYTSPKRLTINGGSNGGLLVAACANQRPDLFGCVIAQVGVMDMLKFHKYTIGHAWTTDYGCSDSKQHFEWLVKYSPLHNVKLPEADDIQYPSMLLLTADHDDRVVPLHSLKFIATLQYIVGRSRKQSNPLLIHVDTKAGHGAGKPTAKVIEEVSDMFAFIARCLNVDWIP

[2] = system: FAP+ CAFs from NSCLC patient samples; assay: Probe cleavage on cancer associated fibroblasts (CAFs); type: cell-based, human; conditions: FAP3 5 µM, confluent CAF monolayer in 96 well plate, DPBS, read 480/530 nm for one hour, n=3 run in triplicate
Experimental: CAFs were isolated from NSCLC patient samples as previously described ([28]). Briefly, tissue samples were minced with forceps and incubated for an hour in prewarmed RPMI media (Gibco) containing collagenase IV [2 mg/ml] (Sigma) and DNase [0.2 mg/ml] (Sigma). Samples were spun at 350 g for 5 minutes and red blood cells were lysed from samples using RBC lysis buffer (BioLegend) in 10 ml for 10 minutes. Following a further spin at 350 g for 5 minutes, cells were seeded in culture flasks in DMEM containing 10% FCS, 1% Penicillin-Streptomycin, 1% L-Glutamine and 10% Insulin Transferrin Selenium (ITS). 24 hours after seeding, non-adherent cells were washed from the flasks. Cells were maintained by standard cell culture methods and by passage 2, the predominant cell type was CAFs, assessed by flow cytometry markers and morphology. CAFs between passage 4-9 were used to assess FAP probes and confirmed to be FAP^hi by flow cytometry.
CAFs were seeded into 96 well plates in a 100 µl media (complete DMEM as described above) at a density of 1x10^5 cells/ml to form a confluent monolayer within 24 hours. […] Immediately after adding imaging probes, the plate was transferred to the prewarmed spectrophotometer as above and read at 480/530 nm for one hour.

[3] = target: MMP 9 (Homo sapiens, UniProt P14780); assay: Probe assessment against recombinant MMP panel; type: biochemical; conditions: recombinant enzyme, n=2 run in triplicate
[4] = target: T2, rhFAP (Homo sapiens, UniProt Q12884); assay: Enzyme kinetics with varying concentrations of substrate FAP3 in presence of rhFAP; type: biochemical; conditions: increasing concentrations of substrate FAP3 with rhFAP; value (SE)
T2 construct: purchased R&D Systems
T2 sequence (Q12884 26-760 limits assumed): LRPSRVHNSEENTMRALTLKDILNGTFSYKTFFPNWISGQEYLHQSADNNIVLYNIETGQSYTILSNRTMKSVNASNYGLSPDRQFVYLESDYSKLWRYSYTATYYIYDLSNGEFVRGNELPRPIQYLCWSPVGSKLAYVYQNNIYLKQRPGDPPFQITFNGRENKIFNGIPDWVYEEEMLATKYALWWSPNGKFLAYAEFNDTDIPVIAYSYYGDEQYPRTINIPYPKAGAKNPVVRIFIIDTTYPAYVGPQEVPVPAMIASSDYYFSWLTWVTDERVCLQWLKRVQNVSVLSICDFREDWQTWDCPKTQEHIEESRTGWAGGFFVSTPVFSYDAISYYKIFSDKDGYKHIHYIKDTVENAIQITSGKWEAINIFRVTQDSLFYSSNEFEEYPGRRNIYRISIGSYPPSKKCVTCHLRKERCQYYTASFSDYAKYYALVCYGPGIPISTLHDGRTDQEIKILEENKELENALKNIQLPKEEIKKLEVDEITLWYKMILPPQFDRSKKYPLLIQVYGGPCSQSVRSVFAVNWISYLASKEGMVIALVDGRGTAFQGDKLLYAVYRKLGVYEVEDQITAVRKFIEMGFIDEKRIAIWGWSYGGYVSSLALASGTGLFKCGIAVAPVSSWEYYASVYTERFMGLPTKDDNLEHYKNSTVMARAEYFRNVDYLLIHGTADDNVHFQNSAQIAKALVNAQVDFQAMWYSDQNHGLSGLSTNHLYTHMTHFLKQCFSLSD
Experimental: A calibration curve was determined using the FAP3 concentration (C-terminal cleavage fragment) against RFU to calculate the enzyme kinetic data and is shown below.

[5] = system: NSCLC patient tissue samples; assay: Fluorescence intensity and lifetime imaging (FLIM) of ex vivo NSCLC tissue; parameters: species or system human; conditions: FAP3 5 µM, ex vivo NSCLC samples N=5, imaged at 10-minute intervals to 40 minutes, 488 nm excitation
Experimental: For imaging solutions, varying concentrations of rhFAP were prepared in blackened eppendorfs and FAP3 to a final concentration of 5µM added and imaged as below. For biological specimens, NSCLC patient tissue samples from surgical resection were used fresh or snap frozen and stored at -80°C until required. Small fragments (approx. 4mm^3) incubated at 37°C in a 96 well plate in phenyl-red free DMEM (Gibco) containing 10% FCS, 1% Penicillin-streptomycin and 1% L-Glutamine. For the tissue fragments to be used as inhibitor controls, we added Talabostat at a dilution of 1:1000. Samples were then imaged using a clinically approved fluorescence lifetime imaging system used in conjunction with an imaging fibre ([30]) providing a 400 x 400 µm field of view. The imaging system incorporates a pulsed supercontinuum laser source, in this case tuned for excitation at 488 nm, with an achromatic confocal laser scanning system and a time-resolved spectrometer. This spectrometer contains a 512 channel single photon avalanche diode (SPAD) sensor ([31]) allowing for the rapid collection of time resolved spectral fluorescence lifetime data. Fluorescence intensity and lifetime images were collected using an image resolution of 160 x 160 pixels over a 498 – 570 nm spectral range with an exposure time of 13 µs per pixel. This led to an imaging rate of ~3 frames per second.
For each condition, the tumour samples were imaged using a fibre placed at the surface of the tissue (baseline), and then again at 10-minute intervals following the additions of equimolar concentrations of probe +/- Inhibitor. For imaging solutions, the fibre was held within the solution and imaged every 5 minutes. Each condition and time-point data for both fluorescence intensity and lifetime were collected. Imaging sequences had non-relevant frames removed, and the entire field of view was analysed. Analysis was undertaken using a bespoke software suite utilising the rapid lifetime determination (RLD) method ([32]). […]

[6] = Probe stability in activated neutrophil lysate
Experimental: Assays were undertaken in triplicate in blackened 384 well plates on ice prior to spectral reads.
Neutrophils were isolated from peripheral blood of healthy volunteers by discontinuous percoll gradients, as previously described ([29]). Cells were resuspended in PBS (at 10 million cells/ml) and stimulated with 1 µM calcium ionophore, then lysed with 1% Triton-X-100. Lysate was used at 1:1 dilution for experiments, replacing recombinant enzymes in the assay as described above, with PBS as the buffer.
MALDI spectra were acquired on a Bruker Ultraflextreme MALDI-TOF MS. Neutrophil lysate experiment samples were prepared by plating 1 µl of the sample with 1 µl of the matrix solution sinapic acid (10 mg/mL) in H2O/CH3CN/TFA (70/30/0.1).

[7] = target: rhDPPIV (Homo sapiens, UniProt P27487); assay: Probe cleavage by recombinant human DPP-IV (exopeptidase activity); conditions: probe 5 µM, rhDPPIV 0.1 µg/ml, TRIS buffer pH 7.5, read 480/530 nm, n=3 run in triplicate
rhDPPIV, sequence (P27487 29-766 limits assumed): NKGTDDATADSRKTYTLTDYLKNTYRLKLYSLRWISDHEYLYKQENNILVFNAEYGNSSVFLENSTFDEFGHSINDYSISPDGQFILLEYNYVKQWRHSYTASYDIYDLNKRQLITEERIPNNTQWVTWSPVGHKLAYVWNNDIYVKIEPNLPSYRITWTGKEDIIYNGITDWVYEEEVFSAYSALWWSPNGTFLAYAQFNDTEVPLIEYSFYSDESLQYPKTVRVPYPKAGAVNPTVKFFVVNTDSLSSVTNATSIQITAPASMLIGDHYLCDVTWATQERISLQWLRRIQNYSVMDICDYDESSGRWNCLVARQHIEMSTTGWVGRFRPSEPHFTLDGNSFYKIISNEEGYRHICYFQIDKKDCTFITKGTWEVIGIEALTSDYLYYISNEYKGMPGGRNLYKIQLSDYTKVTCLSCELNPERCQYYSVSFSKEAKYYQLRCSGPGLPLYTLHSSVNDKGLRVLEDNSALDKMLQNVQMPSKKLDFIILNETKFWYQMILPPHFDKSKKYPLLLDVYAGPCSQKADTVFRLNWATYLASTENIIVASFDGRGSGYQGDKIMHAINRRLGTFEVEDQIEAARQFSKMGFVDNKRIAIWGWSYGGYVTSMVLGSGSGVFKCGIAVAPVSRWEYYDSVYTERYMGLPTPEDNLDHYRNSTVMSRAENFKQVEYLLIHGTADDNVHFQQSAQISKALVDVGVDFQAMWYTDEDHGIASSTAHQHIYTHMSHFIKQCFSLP
Experimental: Recombinant human enzymes [rhFAP (R&D Systems), rhPREP (R&D Systems) and rhDPPIV (Biolegend)] were stored in stocks at -70°C and diluted as required to be used at final concentration of 0.1 µg/ml. Enzymes were aliquoted upon receipt from the supplier and new stocks made from a fresh aliquot as required.
Assays were undertaken in triplicate in blackened 384 well plates on ice prior to spectral reads. […] All wells contained a final volume of 20 µl to include buffers, inhibitors (if used), substrates and recombinant human enzymes (at a concentration of 0.1 µg/ml unless otherwise stated). […] Plates were sealed with an optical plate sealer (Biolegend) and were read in a preheated spectrophotometer (Synergy Biotek) in monochromator-based mode at 380/460 nm for control substrates and 480/530 nm for synthesised FAP probes.

MMP 9, sequence (P14780 94-707): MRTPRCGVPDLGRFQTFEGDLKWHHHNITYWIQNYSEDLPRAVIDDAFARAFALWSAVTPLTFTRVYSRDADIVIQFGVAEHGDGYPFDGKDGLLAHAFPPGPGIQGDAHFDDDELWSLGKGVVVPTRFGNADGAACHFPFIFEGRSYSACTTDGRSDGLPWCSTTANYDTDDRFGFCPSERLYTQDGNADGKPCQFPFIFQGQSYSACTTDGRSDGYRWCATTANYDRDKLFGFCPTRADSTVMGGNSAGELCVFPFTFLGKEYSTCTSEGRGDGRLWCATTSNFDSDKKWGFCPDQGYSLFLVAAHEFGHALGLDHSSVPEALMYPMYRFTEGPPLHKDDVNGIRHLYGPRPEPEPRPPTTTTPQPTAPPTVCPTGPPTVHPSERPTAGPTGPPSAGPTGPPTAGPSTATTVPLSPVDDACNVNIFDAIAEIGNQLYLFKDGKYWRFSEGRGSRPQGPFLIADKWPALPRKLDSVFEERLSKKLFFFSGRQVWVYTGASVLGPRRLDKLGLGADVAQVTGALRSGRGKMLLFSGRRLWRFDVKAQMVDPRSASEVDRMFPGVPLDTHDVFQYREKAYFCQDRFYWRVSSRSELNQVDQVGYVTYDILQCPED

## CC(C)[C@H](NC(=O)[C@@H](N)CCCCNC(=O)c1ccccc1/N=N/c1ccc(N(C)C)cc1)C(=O)N[C@H](CO)C(=O)N1CCC[C@H]1C(=O)N[C@@H](CC(N)=O)C(=O)N[C@@H](CCC(N)=O)C(=O)NCC(=O)N[C@@H](CCCCNC(=O)c1ccc2c(c1)C(=O)OC21c2ccc(O)cc2Oc2cc(O)ccc21)C(=O)NCCOCCOCC(=O)N[C@H](CCCCN)C(=O)NCCOCCOCC(=O)N[C@H](CCCCN)C(=O)NCCOCCOCC(=O)N[C@H](CCCCN)C(N)=O [FAP3] (H-K(MethylRed)V[dS]PNQGK(5FAM)[AEEA][dK][AEEA][dK][AEEA][dK]-NH2)
[1]; MALDI-TOF read-out
  Cleavage by rhPREP by MALDI: no cleavage
[1]; probe 5 µM, rhPREP 0.1 µg/ml, TRIS buffer pH 7.5, read 480/530 nm, n=3 run in triplicate
  Cleavage by rhPREP (fluorescence signal): no rhPREP cleavage
[2]
  Cleavage by FAP+ CAFs (fluorescence): cleaved
[3]
  Activity with MMP 9: no activity
[4]
  Vmax: 109.5 RFU/min
[5]; 37°C
  Change in fluorescence intensity in NSCLC tissue: increase in fluorescence intensity
[5]; RLD method
  Change in fluorescence lifetime in NSCLC tissue: change to a longer lifetime signature
[6]; activated human neutrophil lysate, MALDI-TOF read-out, sinapic acid matrix
  Stability in activated neutrophil lysate (MALDI-TOF): remained intact
[6]; human neutrophils 10 million cells/ml, 1 µM calcium ionophore, lysed with 1% Triton-X-100, lysate at 1:1 dilution, PBS, fluorescence 480/530 nm, n=2 run in triplicate
  Stability in activated neutrophil lysate (fluorescence): stable
[7]
  Cleavage by DPP-IV (exopeptidase activity, fluorescence signal): no cleavage
